Publication PMC6314990 (Forensic Toxicology, 2018)

Columns and labels:
[1] = test system: pentobarbital-induced sleep in mice; test: Cannabinoid-induced potentiation of pentobarbital-induced sleep and effect of CB1 receptor antagonists; format: in vivo, ddY mice; conditions: for Prolongation of pentobarbital-induced sleep compared with vehicle-pretreated group (Veh + Veh): cannabinoid 10 mg/kg i.v., pentobarbital 40 mg/kg i.p. 15 min later, male ddY mice, n = 8
Method: For the pharmacological studies, cannabinoids and antagonists were suspended in saline containing 1% Tween 80. Sodium pentobarbital was dissolved in saline and injected intraperitoneally (i.p.; 40 mg/kg) for the mice. Male ddY mice weighing 20–25 g were housed in groups of 8. All animals were kept in a temperature-controlled (25 °C) environment with a 12-h light–dark cycle (lights on at 7:00 a.m.) and received food and water ad libitum. […] One percent Tween 80-saline solution was injected instead of cannabinoids or antagonists for the vehicle treated group as a control.

CB1 receptor = CB1 receptor (Mus musculus, UniProt P47746)
Chain of CB1 receptor (P47746 whole entry): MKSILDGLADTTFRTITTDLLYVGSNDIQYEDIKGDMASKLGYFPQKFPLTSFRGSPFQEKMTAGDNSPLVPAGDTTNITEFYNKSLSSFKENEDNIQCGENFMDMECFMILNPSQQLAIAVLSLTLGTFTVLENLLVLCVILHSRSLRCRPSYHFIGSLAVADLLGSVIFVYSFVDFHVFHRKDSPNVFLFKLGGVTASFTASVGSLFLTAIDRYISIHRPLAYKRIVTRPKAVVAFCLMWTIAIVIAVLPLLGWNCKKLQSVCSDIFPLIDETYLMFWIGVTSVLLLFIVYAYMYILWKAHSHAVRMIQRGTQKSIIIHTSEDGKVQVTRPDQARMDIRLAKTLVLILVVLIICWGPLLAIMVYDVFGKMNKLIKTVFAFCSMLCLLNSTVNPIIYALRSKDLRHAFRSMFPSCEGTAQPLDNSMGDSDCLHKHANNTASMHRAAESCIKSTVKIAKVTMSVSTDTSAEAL
Method: Crude synaptic membranes from ddY male mice brains were prepared according to the method of Zukin et al. [32] with a slight modification. Briefly, whole mice brains were homogenized in 15 volumes of ice-cold 0.32 M sucrose for 1 min with a Polytron homogenizer (Kinematica, Lucerne, Switzerland), followed by centrifugation at 1000 g for 10 min at 4 °C. The pellet was discarded and the supernatant was centrifuged at 20000g for 20 min at 4 °C. This pellet was homogenized for 15 s in 40 volumes of ice-cold distilled water and further dispersed with a Polytron homogenizer. The suspension was then centrifuged at 8000g for 20 min at 4 °C. The supernatant and the soft buffy upper layer of the pellet were carefully collected and combined. This fraction was then centrifuged at 48000g for 20 min at 4 °C.
A ligand binding assay for the cannabinoid receptor was performed according to the method of Devane et al. [34] and Compton et al. [16]. […] The filters were then placed in glass scintillation vials with 10 ml of Clearsol and the radioactivity was counted using a liquid scintillation counter (LSC-6100, Aloka, Tokyo, Japan). […] The inhibitory constant (Ki value) was calculated according to the method of Speth et al. [35].

## Cc1c(C(=O)NN2CCCCC2)nn(-c2ccc(Cl)cc2Cl)c1-c1ccc(I)cc1 [AM251, N-(piperidin-1-yl)-5-(4-iodophenyl)-1-(2,4-dichlorophenyl)-4-methyl-1H-pyrazole-3-carboxamide]
[1]; antagonist 2 mg/kg i.v., ∆9-THC 10 mg/kg i.v., pentobarbital 40 mg/kg i.p., mice
  Effect of antagonist on potentiating effect of ∆9-THC on pentobarbital-induced sleep, low dose: attenuated
[1]; antagonist 2–10 mg/kg i.v. 10 min before ∆9-THC 10 mg/kg i.v., pentobarbital 40 mg/kg i.p., mice
  Effect of antagonist pretreatment on potentiation of pentobarbital-induced sleep by ∆9-THC: decreased dose-dependently
[1]; without ∆9-THC, pentobarbital 40 mg/kg i.p., mice
  Effect of antagonist alone (antagonist + Veh) on pentobarbital-induced sleeping time: no change in pentobarbital-induced sleeping time

## CCCCCc1cc(O)c2c(c1)OC(C)(C)[C@@H]1CCC(C)=CC21 (stereo partly shown) [∆^9-THC, ∆^9-tetrahydrocannabinol]
[1]
  Prolongation of pentobarbital-induced sleep compared with vehicle-pretreated group (Veh + Veh): 3.3 fold

## C=C(C)[C@@H]1CCC(C)=C[C@H]1c1c(O)cc(CCCCC)cc1O [CBD, cannabidiol]
[1]
  Prolongation of pentobarbital-induced sleep compared with vehicle-pretreated group (Veh + Veh): 1.8 fold

## CCCC(C)C1(CC)C(=O)NC(=O)NC1=O (stereo not shown) [Pentobarbital, sodium pentobarbital]
CB1 receptor; pentobarbital 1 mM added to the reaction mixture, control 0.055 ± 0.002, N.S. vs control
  Specific [3H]CP55940 binding: 0.050 ± 0.003 ^N.S. pmol/mg protein
CB1 receptor; pentobarbital 1 mM, mouse brain synaptic membrane
  Effect on specific [3H]CP55940 binding: did not affect specific [^3H]CP55940 binding
